Data as given in publication PMC11057469, “Quantitative cross-species comparison of serum albumin binding of per- and polyfluoroalkyl substances from five structural classes” (Toxicological Sciences, 2024).
Where two headings read alike, the source gives them in different places.

Tests used:
[1] = target: porcine serum albumin (PSA) (Sus scrofa, UniProt P08835); assay: in vitro; details: for ΔTm: pig, pH 7.4
Experimental: (§1) Serum albumin stocks (1 mM) were prepared by reconstituting lyophilized stocks in HBS, with expected protein concentrations confirmed using the colorimetric Bio-Rad DC Protein Assay (Hercules, California).
(§2) A minimum of 2 independent plates were run for each protein-ligand combination, with 3 replicates per sample on each plate. Controls on each plate included a no protein control, matching vehicle control (no ligand), and 3 concentrations of OA (1, 2, 3 mM) and/or PFHxA (0.3, 1, 3 mM) as positive controls. The concentration of albumin that yielded maximal signal-to-noise ratio was optimized for each species. […] For concentration-response analyses, PFAS stock solutions were serially diluted into HBS.

[2] = target: human serum albumin (HSA) (Homo sapiens, UniProt P02768); assay: in vitro
Experimental: as §1, §2

Rat serum albumin (RSA) = Rat serum albumin (RSA) (Rattus norvegicus, UniProt P02770); assay: in vitro; details: for ΔTm: rat, pH 7.4; for difference in binding affinity, RSA affinity greater than HSA: RSA compared with HSA, from DSF Kd
Experimental: as §1, §2

[3] = target: Bovine serum albumin (BSA) (Bos taurus, UniProt P02769); assay: in vitro; details: for difference in binding affinity, BSA affinity lower than HSA: BSA compared with HSA; for ΔTm: bovine, pH 7.4
Experimental: as §2

[4] = pig, after oral exposure; ref Fasano et al., 2006; Xie et al., 2020; cited from earlier work
[5] = rat, after oral exposure; ref Fasano et al., 2006; Xie et al., 2020; cited from earlier work
[6] = elimination half-life in serum/plasma, Rat, cited from earlier work
[7] = elimination half-life in serum/plasma, Human, cited from earlier work
[8] = design: method as in Numata et al., 2014; details: elimination half-life in serum/plasma, Pig; ref Numata et al., 2014; cited from earlier work
[9] = design: method as in Death et al., 2021; details: elimination half-life in serum/plasma, Cow; ref Death et al., 2021; cited from earlier work
[10] = PSA, 1 = highest relative affinity, 4 = lowest
[11] = HSA, 1 = highest relative affinity, 4 = lowest
[12] = RSA, 1 = highest relative affinity, 4 = lowest
[13] = BSA, 1 = highest relative affinity, 4 = lowest
[14] = PSA compared with HSA, from DSF Kd

human serum albumin (HSA), sequence (P02768 25-609): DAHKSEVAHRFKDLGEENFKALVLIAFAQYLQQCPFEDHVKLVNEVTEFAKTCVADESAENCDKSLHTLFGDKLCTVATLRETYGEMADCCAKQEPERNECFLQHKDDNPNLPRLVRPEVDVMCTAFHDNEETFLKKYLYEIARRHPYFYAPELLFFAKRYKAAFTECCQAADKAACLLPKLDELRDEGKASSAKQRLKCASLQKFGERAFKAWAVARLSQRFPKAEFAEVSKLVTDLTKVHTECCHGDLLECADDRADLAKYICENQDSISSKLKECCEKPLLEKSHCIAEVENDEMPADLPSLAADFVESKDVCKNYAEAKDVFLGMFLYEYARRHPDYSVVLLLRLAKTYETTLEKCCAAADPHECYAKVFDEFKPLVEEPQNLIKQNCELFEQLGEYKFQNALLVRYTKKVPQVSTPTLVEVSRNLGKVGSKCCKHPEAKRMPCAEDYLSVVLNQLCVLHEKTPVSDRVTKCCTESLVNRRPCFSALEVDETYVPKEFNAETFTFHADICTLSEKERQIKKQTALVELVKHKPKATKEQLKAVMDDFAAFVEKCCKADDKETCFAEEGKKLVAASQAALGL
Bovine serum albumin (BSA), sequence (P02769 25-607): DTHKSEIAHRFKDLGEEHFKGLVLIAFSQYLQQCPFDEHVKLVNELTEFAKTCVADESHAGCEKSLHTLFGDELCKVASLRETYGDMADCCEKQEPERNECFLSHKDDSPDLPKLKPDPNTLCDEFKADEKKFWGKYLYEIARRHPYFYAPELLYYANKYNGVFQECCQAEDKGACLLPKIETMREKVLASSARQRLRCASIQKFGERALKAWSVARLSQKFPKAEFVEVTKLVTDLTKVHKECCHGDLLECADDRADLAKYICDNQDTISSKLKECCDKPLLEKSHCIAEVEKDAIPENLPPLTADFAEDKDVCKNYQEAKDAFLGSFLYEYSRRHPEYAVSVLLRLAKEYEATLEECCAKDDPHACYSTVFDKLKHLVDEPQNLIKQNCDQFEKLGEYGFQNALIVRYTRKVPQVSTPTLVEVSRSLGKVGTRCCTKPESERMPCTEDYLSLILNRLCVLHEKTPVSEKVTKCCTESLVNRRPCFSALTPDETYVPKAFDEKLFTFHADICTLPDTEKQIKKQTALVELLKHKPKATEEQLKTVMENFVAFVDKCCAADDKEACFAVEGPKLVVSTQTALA
Rat serum albumin (RSA), sequence (P02770 25-608): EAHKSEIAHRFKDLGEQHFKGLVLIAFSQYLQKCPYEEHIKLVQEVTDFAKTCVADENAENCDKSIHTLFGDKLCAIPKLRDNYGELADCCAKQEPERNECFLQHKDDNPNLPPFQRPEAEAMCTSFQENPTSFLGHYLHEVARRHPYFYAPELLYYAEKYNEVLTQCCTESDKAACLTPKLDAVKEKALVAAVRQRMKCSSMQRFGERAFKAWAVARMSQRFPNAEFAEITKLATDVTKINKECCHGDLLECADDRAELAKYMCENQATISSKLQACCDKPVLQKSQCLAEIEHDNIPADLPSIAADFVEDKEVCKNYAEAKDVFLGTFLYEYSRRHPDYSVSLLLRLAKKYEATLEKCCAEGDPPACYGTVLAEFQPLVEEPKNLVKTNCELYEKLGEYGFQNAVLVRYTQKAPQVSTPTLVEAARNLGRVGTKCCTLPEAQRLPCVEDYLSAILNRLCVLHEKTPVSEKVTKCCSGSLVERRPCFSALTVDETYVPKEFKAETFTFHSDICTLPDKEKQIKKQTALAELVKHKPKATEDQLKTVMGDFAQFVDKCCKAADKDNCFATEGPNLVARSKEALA
porcine serum albumin (PSA), sequence (P08835 25-607): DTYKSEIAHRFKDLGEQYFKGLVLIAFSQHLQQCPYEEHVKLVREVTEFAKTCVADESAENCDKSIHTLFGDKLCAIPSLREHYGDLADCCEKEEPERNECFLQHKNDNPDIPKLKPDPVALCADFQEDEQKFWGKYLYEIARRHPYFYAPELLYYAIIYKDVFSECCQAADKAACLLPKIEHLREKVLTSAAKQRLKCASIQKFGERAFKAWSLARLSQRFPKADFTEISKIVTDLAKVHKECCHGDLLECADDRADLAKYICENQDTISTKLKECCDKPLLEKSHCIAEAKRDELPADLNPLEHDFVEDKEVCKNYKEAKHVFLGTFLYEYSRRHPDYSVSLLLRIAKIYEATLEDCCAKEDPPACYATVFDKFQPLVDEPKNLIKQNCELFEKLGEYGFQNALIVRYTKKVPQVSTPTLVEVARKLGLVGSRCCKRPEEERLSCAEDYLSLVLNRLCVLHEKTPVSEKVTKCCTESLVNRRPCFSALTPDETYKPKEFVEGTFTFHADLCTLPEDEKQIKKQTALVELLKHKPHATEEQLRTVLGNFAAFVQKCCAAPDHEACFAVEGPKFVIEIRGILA

| SMILES | rank order of binding affinity among the four albumins [1, 10] | rank order of binding affinity among the four albumins [2, 11] | rank order of binding affinity among the four albumins (Rat serum albumin (RSA); [12]) | Kd [3] [µM] | difference in binding affinity, BSA affinity lower than HSA ([3]; from DSF Kd) [%] | rank order of binding affinity among the four albumins [3, 13] | Kd [1] [µM] | Kd [2] [µM] | Kd (Rat serum albumin (RSA)) [µM] | Half-life ([6]; ref Pizzurro et al., 2019) | Half-life ([7]; ref Pizzurro et al., 2019) | difference in binding affinity, PSA affinity greater than HSA [1, 14] [%] | Half-life [8] | other results |
| --- | --- | --- | --- | --- | --- | --- | --- | --- | --- | --- | --- | --- | --- | --- |
| OCCC(F)(F)C(F)(F)C(F)(F)C(F)(F)C(F)(F)C(F)(F)F [6:2 FTOH, 1H, 1H, 2H, 2H-perfluorooctanol] |  |  |  |  |  |  |  |  |  |  |  |  |  | ΔTm, maximum change in melting temperature ([1]; PSA 0.11 mM, DSF, value (±SEM), N/A = nonbinding): no changes in albumin TM were detected; ΔTm, maximum change in melting temperature ([2]; HSA 0.13 mM, DSF, value (±SEM), N/A = nonbinding): no changes in albumin TM were detected; ΔTm, maximum change in melting temperature (Rat serum albumin (RSA); RSA 0.18 mM, DSF, value (±SEM), N/A = nonbinding): no changes in albumin TM were detected; ΔTm, maximum change in melting temperature ([3]; BSA 0.18 mM, DSF, value (±SEM), N/A = nonbinding): no changes in albumin TM were detected |
| O=S(=O)(O)CCC(F)(F)C(F)(F)C(F)(F)C(F)(F)C(F)(F)C(F)(F)F [6:2 FTSA, 2H, 2H, 3H, 3H-perfluorooctane-1-sulfonate] | 3 | 2 | 1 | 1390 | 108.9 | 4 |  |  |  |  |  |  |  | ΔTm [1]: 8.72 °C; ΔTm ([2]; human, pH 7.4): 3.53 °C; ΔTm (Rat serum albumin (RSA)): 7.99 °C; ΔTm [3]: 17.2 °C |
| OCCC(F)(F)C(F)(F)C(F)(F)C(F)(F)C(F)(F)C(F)(F)C(F)(F)C(F)(F)F [8:2 FTOH] |  |  |  |  |  |  |  |  |  |  |  |  |  | accumulation in tissues [4]: did not accumulate; accumulation in tissues [5]: did not accumulate |
| O=C(O)C(F)(OC(F)(F)C(F)(F)C(F)(F)F)C(F)(F)F (centres unmarked) [HFPO-DA, hexafluoropropylene oxide-dimer acid] | 3 | 1 | 2 | 2550 | 47.6 | 4 | 2120 | 1570 | 1640 |  |  |  |  | difference in binding affinity, HSA affinity greater than PSA ([1]; HSA compared with PSA, from DSF Kd): 29.8% |
| O=C(O)C(F)(F)C(F)(F)C(F)(F)F [PFBA, Perfluorobutanoic acid] | 1 | 3 | 2 | 3060 |  | 4 | 1280 | 2640 | 1900 | 1–9.2 h^a | 3.1 days^a | 69.4 |  |  |
| O=S(=O)(O)C(F)(F)C(F)(F)C(F)(F)C(F)(F)F [PFBS, perfluorobutanesulfonic acid] | 2 | 4 | 3 |  |  | 1 | 1250 | 1680 | 1410 | 0.6–7.4 h^a | 25.8 days^a | 29.4 | 43 days^d | difference in binding affinity, RSA affinity greater than HSA (Rat serum albumin (RSA)): 17.5%; difference in binding affinity, HSA affinity lower than BSA ([3]; HSA compared with BSA, from DSF Kd): 71.0% |
| O=C(O)C(F)(F)C(F)(F)C(F)(F)C(F)(F)C(F)(F)F [PFHxA, Perfluorohexanoic acid] | 1 | 3 | 2 | 2170 | 23.7 | 4 | 950 | 1710 | 1330 |  |  | 57.1 | 4.1 days^d | Half-life ([6]; ref Russell et al., 2013): 0.4–9.8 h^e; Half-life ([7]; ref Lau, 2015): 32 days^b |
| O=C(O)C(F)(F)C(F)(F)C(F)(F)C(F)(F)C(F)(F)C(F)(F)C(F)(F)F [PFOA, perfluorooctanoic acid] | 1 | 3 | 2 | 990 | 22.5 | 4 | 370 | 790 | 400 | 0.1–15 days^a | 2.3–8.5 years^a | 72.4 | 236 days^d | Half-life [9]: 0.8–1.3 days^c; binding affinity of 8-carbon congener greater than 4-carbon congener ([1]; PSA, PFOA vs PFBA, PFOS vs PFBS): 110.3%; binding affinity of 8-carbon congener greater than 4-carbon congener ([2]; HSA, PFOA vs PFBA, PFOS vs PFBS): 107.9%; difference in binding affinity, RSA affinity greater than HSA (Rat serum albumin (RSA)): 65.5%; binding affinity of 8-carbon congener greater than 4-carbon congener (Rat serum albumin (RSA); RSA, PFOA vs PFBA, PFOS vs PFBS): 130.4%; binding affinity of 8-carbon congener greater than 4-carbon congener ([3]; BSA, PFOA vs PFBA): 102.2% |
| O=S(=O)(O)C(F)(F)C(F)(F)C(F)(F)C(F)(F)C(F)(F)C(F)(F)C(F)(F)C(F)(F)F [PFOS, perfluorooctanesulfonic acid] |  |  |  |  |  |  |  | 690 |  | 24–83 days^a | 3.3–5.4 years^a |  | 1.7 years^d | Half-life [9]: 39–120 days^c; binding affinity of 8-carbon congener greater than 4-carbon congener [1]: 106.7%; difference in binding affinity, PSA affinity greater than HSA [1]: 57.9%; rank order of binding affinity among the four albumins [1]: 1; ΔTm [1]: 5.74 °C; binding affinity of 8-carbon congener greater than 4-carbon congener [2]: 83.5%; rank order of binding affinity among the four albumins [2]: 3; Kd ([2]; human, pH 7.4): 620 µM; ΔTm ([2]; human, pH 7.4): 15.9 °C; binding affinity of 8-carbon congener greater than 4-carbon congener (Rat serum albumin (RSA)): 108.2%; rank order of binding affinity among the four albumins (Rat serum albumin (RSA)): 2; ΔTm (Rat serum albumin (RSA)): 4.76 °C; hill slope of the biphasic melt curve [3]: 3.5 ± 0.3; rank order of binding affinity among the four albumins [3]: 4; ΔTm [3]: 15.3 °C |
